Where two headings read alike, the source gives them in different places.
Legend:
[1] = system: patients with bipolar disorder; assay: Phase I 6-week open-label clinical trial in outpatients with bipolar disorder (rating scales, patient histories)
Description: The new methods are based on a Phase I open-label clinical trial of RG2133, a prodrug of uridine, designed to assess the impact of uridine in patients with bipolar disorder. […] The trial assessed the impact of daily, oral administration of escalating doses of RG2133 over a 6 week period on the symptoms associated with bipolar disorder, which are not adequately treated with existing drugs including SSRIs such as Prozac® or Zoloft®. The trial included 11 patients.
Outpatients with bipolar disorder were recruited for this 6-week open-label study. Patients' daily dose amounts were divided into three daily doses. Subjects received an initial RG2133 dose of 6 g/day. […] Subjects were monitored for changes in mood using standard rating scales. The subjects' physical status was followed clinically and with standard laboratory measures to monitor for any adverse effects and/or toxicity.
During the baseline visit, a detailed psychiatric and medical history was obtained, and the following standard rating scales were performed: Structured Clinical Interview for DSM-IV (SCID) for diagnosis, Young Mania Rating Scale (YMRS), Montgomery-Asberg Depression rating Scale (MADRS), the Hamilton Anxiety Scale (HAMA), Clinical Global Impression scale (CGI), the Global Assessment of Function (GAF) scale, quality of life scale (SF-36), as well as a brief adverse-effect rating scale.
After the baseline evaluation, patients returned for office visits at weeks 1, 2, 3, 4, and 6. The same rating scales were performed at each follow-up office visit, except for the SCID. Instead of the full SCID at the follow-up visits, only the SCID screening questions for mania and depression were performed to aid in the determination of syndromic recovery or recurrence. In addition, patients maintained a daily Mood Diary, which was reviewed at each study visit to elicit symptom recall. Routine clinical and laboratory evaluations of each patient's physical status occurred at baseline and at regular intervals. Subjects were monitored for changes in mood using standard rating scales. The subjects' physical status was followed clinically and with standard laboratory measures to monitor for any adverse effects and/or toxicity.
During the study patients were evaluated using the Montgomery-Asberg Depression Rating Scale (MADRS). This scale measures the effect of treatment on depression severity relative to a baseline assessment before treatment. The MADRS measures the severity of a number of symptoms on a scale from 0 to 60, including mood and sadness, tension, sleep, appetite, energy, concentration, suicidal ideation, and restlessness. Increasing scores reflect a greater severity of depression. Scores of 15-25 on the MADRS scale indicate moderate depression. Scores above 25 indicate clinically severe depression.
During the study patients were also evaluated using the Young Mania Rating Scale (YMRS). This scale assesses the severity of mania in patients already diagnosed with mania based on a personal interview. Scores of 1 to 12 are not considered to be suffering from mania, whereas a score of 13 indicates minimal mania. Increasing scores to 44, indicate progressively severe mania.
During the study patients were also evaluated using Clinical Global Impression (CGI) scale. A clinician rated the severity of the patient's illness relative to the clinician's past experience with patients with the same diagnosis. At the outset of the study a clinician created a baseline single item score on a 7 point scale from 1 (‘normal’, not ill) to 7 (extremely ill). CGI was then used to track the clinical distance between a patient's individual's current condition and his or her baseline condition at the start of treatment.
During the study patients were evaluated using Global Assessment of Functioning (GAF), which is a modified version of the Global Assessment Scale (GAS).

[2] = system: patients with bipolar disorder; assay: Adverse events in the 6-week patient study; assay type: in vivo, human
Text: The total number of adverse events is reported by the number and percentage of subjects experiencing each adverse event. If a subject reported the same adverse event over the course of the study, that event was counted once.
During the course of the 6-week study, there were some reported side effects to the medication. 1 subject reported stomach cramps, 1 reported nausea, 4 reported decreased appetite, 3 reported an increase in constipation, 4 reported diarrhea, 1 reported muscle cramps, 2 reported headaches, 1 reported fatigue, 2 reported problems with sleeping, 2 reported increased flatulence, and 1 reported a decrease in libido. In addition, one subject reported changes in their vision that affected their depth perception. […] The subject independently decided to increase their dose back to its original amount in response to their manic reaction to the decreased dose. Due to this protocol deviation, and the subject's manic break, the subject was terminated from the study.

[3] = system: fluorouracil toxicity; conditions: cited from earlier work
[4] = in vivo; conditions: both sexes, Crl: CD (SD)IGS BR, rat, po
Description: RG2133 has been tested in a repeat dose rodent toxicity and toxicokinetic study. Three groups of ten male and ten female rats (Crl: CD® (SD)IGS BR strain) received RG2133 orally, by gavage, at dosages of 300, 1000, or 2000 mg/kg/day (administered as 150, 500, or 1000 mg/kg b.i.d.) in aqueous 1% carboxymethylcellulose with methyl paraben (at 1.8 g/l) and propyl paraben (at 0.2 g/l) for four weeks. Animals were examined by observation and lab analysis of blood and urine for evidence of toxicity, and results are shown in Table 1. Tissues were examined microscopically for evidence of drug related toxicity. […] The no-observed-adverse-effect-level (NOAEL) was considered to be 2000 mg/kg/day (1000 mg/kg b.i.d.).

[5] = metabolites, not the prodrug, are observed in blood; cited from earlier work
[6] = system: blood lactate levels; assay: Plasma lactate elevation after oral gavage (stress response) during repeat dose toxicology study; assay type: in vivo, rats; conditions: rat plasma lactate
[7] = oral, cited from earlier work
[8] = cited from earlier work
[9] = uridine infusion, cited from earlier work
[10] = in vivo; cited from earlier work
[11] = bipolar patients, daily oral escalating doses, 6 weeks

CC(=O)OC[C@H]1O[C@@H](n2ccc(=O)[nH]c2=O)[C@H](OC(C)=O)[C@@H]1OC(C)=O [RG2133, 2′,3′,5′-tri-O-acetyluridine]
Individual patient: mania-type event ([1]; Patient #3, bipolar II, on antidepressant, 12 g/day): slight hypomania at week three
Individual patient: reported mood ([1]; Patient #4, bipolar I, on antidepressant, 6 to 12 g/day): feeling stable
Individual patient: mood at end of study ([1]; Patient #4, week six): mood deteriorated at week six
Individual patient: mania-type event ([1]; Patient #4, week three): some hypomania at week three
Individual patient: reported mood ([1]; Patient #5, bipolar I, no antidepressant, 6 g/day): significant change in mood at week one
Individual patient: adverse effect ([1]; Patient #6): some eye pain
Individual patient: reported mood ([1]; Patient #6, no antidepressant, 6 g/day): feeling significantly better than they had in two years
Individual patient: reported mood ([1]; Patient #7, bipolar I, on antidepressant, 6 to 18 g/day): no change in mood
Individual patient: adverse event ([1]; Patient #11): severe bout of colitis
Individual patient: bipolar symptoms ([1]; Patient #11, bipolar II, on antidepressant, 12 g/day): complete remission at week four
Individual patient: adverse effect ([1]; Patient #13): slight change in depth perception leading to two falls
Individual patient: reported mood ([1]; Patient #13, bipolar I, no antidepressant, 6 to 9 g/day): feeling less depressed and more hopeful
Individual patient: complaints ([1]; Patient #15, after three weeks): dizziness spells, constipation, and a reported manic episode
Individual patient: reported mood ([1]; Patient #15, bipolar II, no antidepressant, 6 to 12 g/day): feeling less volatile and fewer mood swings
Individual patient: complaints ([1]; Patient #16): loose stools and increased flatulence
Individual patient: reported mood ([1]; Patient #16, bipolar II, on antidepressant, 6 to 12 g/day): no change in mood
Individual patient: complaints ([1]; Patient #17): loose stools and increased flatulence
Individual patient: reported mood ([1]; Patient #17, bipolar II, on antidepressant, 6 to 12 g/day): no change in mood
Average GAF score ([1]; after week four (FIG. 4)): declined to a level slightly above the initial GAF score
Average GAF score ([1]; beginning of the study to week four (FIG. 4)): improved slightly
Average MADRS scores ([1]; between week three and week six (FIG. 1)): rose slightly
Induction of mania [1, 11]: did not induce mania
Safety of administration [1, 11]: safe
Average female CGI scores ([1]; course of the study relative to initial score, unlike male scores (FIG. 7)): improved
Averaged YMRS scores ([1]; during the course of the study (FIG. 2)): slight decrease
Average HAM-A score ([1]; during the course of the study (FIG. 5)): went down slightly
Female YMRS scores vs initial baseline ([1]; during the study (FIG. 6)): did not increase above the initial baseline score
Average CGI score ([1]; end of the study vs baseline (FIG. 3)): somewhat above baseline
Average MADRS scores ([1]; first three weeks of treatment (FIG. 1)): slight decrease
Average YMRS, female patients ([1]; first three weeks, female vs male (FIG. 6)): declined slightly more than males
Average CGI scores, patients not taking antidepressant ([1]; vs patients on antidepressant medication (FIG. 8)): faster decline
CGI ([1]; weeks one to three (FIG. 3)): improved slightly
CGI ([1]; weeks three to six (FIG. 3)): deteriorated slightly
Effect on patients' depression (MADRS) ([1]; whole study): did not significantly worsen patients' depression
Subjects reporting a decrease in libido ([2]; 6-week study): 1
Subjects reporting an increase in constipation ([2]; 6-week study): 3
Subjects reporting changes in vision that affected depth perception ([2]; 6-week study): one
Subjects reporting decreased appetite ([2]; 6-week study): 4
Subjects reporting diarrhea ([2]; 6-week study): 4
Subjects reporting fatigue ([2]; 6-week study): 1
Subjects reporting headaches ([2]; 6-week study): 2
Subjects reporting increased flatulence ([2]; 6-week study): 2
Subjects reporting muscle cramps ([2]; 6-week study): 1
Subjects reporting nausea ([2]; 6-week study): 1
Subjects reporting problems with sleeping ([2]; 6-week study): 2
Subjects reporting stomach cramps ([2]; 6-week study): 1
Subjects reporting weaker vision ([2]; 6-week study): Another subject
Subjects reporting a manic episode ([2]; week 3, after reducing the dose): One
Effect on hematologic toxicities associated with fluorouracil ([3]; 6 g/dose every 6 hours): reduction in hematologic toxicities
Adverse effect seen ([3]; cancer patients, toxicity evaluation equivocal because of cancer and fluorouracil toxicities): Diarrhea
peak blood uridine levels ([3]; suspension and tablet forms, 6 g/dose every 6 hours for 9 doses): 167 µM
NOAEL at 28 days [4]: 2000 mg/kg/day
Metabolism of enteral dosages [5]: rapidly metabolized to uridine and uracil
Effect on lactate level relative to normal baseline value (2.4 mM) [6]: did not reduce the lactate level below the normal baseline value

O=c1ccn([C@@H]2O[C@H](CO)[C@@H](O)[C@H]2O)c(=O)[nH]1 [uridine]
Reported effects ([7]; 10 or 12 g/m^2): cramps and diarrhea
maximum tolerated dose without side effects ([7]; multiple dosing every 6 hours): 5 g/m^2
Reported effects ([7]; repeat doses every 6 hours of 8 g/m^2): diarrhea
maximum tolerated dose without side effects ([7]; single dose): 10 g/m^2
Bioavailability [7]: 5.8-9.9%
Doses at which no toxicity was observed [7]: ≤ 8 g/m^2
peak plasma levels of uridine [7]: 80 µM
Effect of higher dosages ([8]; above 1000 mg/kg/day, some patients): mild diarrhea
Dosages with no known toxic effects ([8]; pure uridine, long-term experience): up to 1000 mg/kg/day
Plasma concentrations above baseline values ([9]; baseline 3 μM): > 100 fold
Observed side effect [9]: fever
volume distribution [10]: around 0.634 liters/kg
